Common to all, as to type: functional
The subject of assay [1] is Mycobacterium tuberculosis. As to the kind of experiment: Antibacterial activity against drug-sensitive 1 ug/ml Mycobacterium tuberculosis clinical isolate 741 assessed as growth inhibition after 7 days by microtiter plate assay. Conditions: isolate 741, 168 h.
Assay [2] has as its system Staphylococcus aureus. In words: Antibacterial activity against Staphylococcus aureus assessed as zone of inhibition at 2 ug/ml. Conditions: read-out: DIZ.
For assay [3], the system named is Mycobacterium tuberculosis. As to the kind of experiment: Antibacterial activity against drug-sensitive 1 ug/ml Mycobacterium tuberculosis clinical isolate 821 assessed as growth inhibition after 7 days by microtiter plate assay. Conditions: isolate 821, 168 h.
In assay [4] the test system is Escherichia coli. As to the kind of experiment: Antibacterial activity against duck Escherichia coli assessed as zone of inhibition at 2 ug/ml. Conditions: read-out: DIZ.
The test system of assay [5] is Staphylococcus aureus. As to the kind of experiment: Antibacterial activity against Staphylococcus aureus assessed as growth inhibition after 7 days by microtiter plate assay. The settings on record: 168 h.
The test system of assay [6] is Salmonella. In words: Antibacterial activity against Salmonella assessed as zone of inhibition at 2 ug/ml. Conditions: read-out: DIZ.
In assay [7] the test system is Pseudomonas aeruginosa. As to the kind of experiment: Antibacterial activity against Pseudomonas aeruginosa assessed as growth inhibition after 7 days by microtiter plate assay. Conditions: 168 h.
Assay [8] concerns Escherichia coli. As to the kind of experiment: Antibacterial activity against Escherichia coli assessed as growth inhibition after 7 days by microtiter plate assay. Conditions: 168 h.
In assay [9] the test system is Pseudomonas aeruginosa. In words: Antibacterial activity against Pseudomonas aeruginosa assessed as zone of inhibition at 2 ug/ml. Conditions: read-out: DIZ.
In assay [10] the test system is Escherichia coli. As to the kind of experiment: Antibacterial activity against duck Escherichia coli assessed as growth inhibition after 7 days by microtiter plate assay. Conditions: 168 h.
Assay [11] concerns Salmonella. As to the kind of experiment: Antibacterial activity against Salmonella assessed as growth inhibition after 7 days by microtiter plate assay. The settings on record: 168 h.
Assay [12] concerns Mycobacterium tuberculosis. As to the kind of experiment: Antibacterial activity against Mycobacterium tuberculosis H37Rv ATCC 27294 assessed as growth inhibition after 7 days by microtiter plate assay. Conditions: H37Rv ATCC 27294, 168 h.
Assay [13] concerns Mycobacterium tuberculosis. As to the kind of experiment: Antibacterial activity against drug-sensitive 1 ug/ml Mycobacterium tuberculosis clinical isolate 758 assessed as growth inhibition after 7 days by microtiter plate assay. The settings on record: isolate 758, 168 h.
For assay [14], the system named is Mycobacterium tuberculosis. As to the kind of experiment: Antibacterial activity against drug-sensitive 1 ug/ml Mycobacterium tuberculosis clinical isolate 753 assessed as growth inhibition after 7 days by microtiter plate assay. Conditions: isolate 753, 168 h.
Assay [15] relates to Mycobacterium tuberculosis. As to the kind of experiment: Antibacterial activity against drug-sensitive 1 ug/ml Mycobacterium tuberculosis clinical isolate 760 assessed as growth inhibition after 7 days by microtiter plate assay. The settings on record: isolate 760, 168 h.
For assay [16], the system named is Escherichia coli. As to the kind of experiment: Antibacterial activity against Escherichia coli assessed as zone of inhibition at 2 ug/ml. The settings on record: read-out: DIZ.

A word on the MIC: it is the smallest concentration in the dilution series that meets the test's criterion for growth inhibition.

In brackets after ≈: the same amount, converted by molar mass.

Regarding `C[C@H]1[C@@H](O)O[C@@H]2O[C@@]3(C)CC[C@H]4[C@H](C)CC[C@@H]1[C@@]24OO3` [ARTENIMOL], the MIC was more than 16 mg/L in assay [1]; more than 16 mg/L in assay [3]; 16 mg/L (≈ 56.3 µM) with Staphylococcus aureus [5]; 16 mg/L (≈ 56.3 µM) with Pseudomonas aeruginosa [7]; 16 mg/L (≈ 56.3 µM) in the assay on Escherichia coli [8]; 4 mg/L (≈ 14.1 µM) in the assay with Escherichia coli [10]. Moreover, the MIC is 16 mg/L (≈ 56.3 µM) with Salmonella [11]; more than 56 µM in [12]; more than 16 mg/L in assay [13]; more than 16 mg/L in assay [14]; more than 16 mg/L in assay [15]. Further, the zone of inhibition at 2 µg/mL in the assay with Staphylococcus aureus [2], in the assay on Escherichia coli [4], with Salmonella [6], in the assay on Pseudomonas aeruginosa [9] and in the assay on Escherichia coli [16] was less than 5 mm each time.

For `O=C(O)c1cn(C2CC2)c2cc(N3CCNCC3)c(F)cc2c1=O` [CIPROFLOXACIN], the zone of inhibition at 2 µg/mL in the assay on Staphylococcus aureus [2] turned out to be 9 mm; in the assay on Escherichia coli [4] it was 42 mm; with Salmonella [6], 24 mm; in the assay with Pseudomonas aeruginosa [9], 18 mm. For the same compound, the MIC turned out to be 8 mg/L (≈ 24.1 µM) in the assay on Staphylococcus aureus [5] and 0.75 µM (≈ 0.249 µg/mL) in assay [12].

Regarding `NC1CCN(c2c(F)cc3c(=O)c(C(=O)O)cn(C4CC4)c3c2Cl)C1` (stereo not given) [CLINAFLOXACIN], the MIC in assay [1] is 1 mg/L (≈ 2.73 µM); in [3] it was 1 mg/L (≈ 2.73 µM); in the assay with Staphylococcus aureus [5], 2 mg/L (≈ 5.47 µM); in the assay with Pseudomonas aeruginosa [7], 0.5 mg/L (≈ 1.37 µM); with Escherichia coli [8], 0.25 mg/L (≈ 0.683 µM); in the assay with Escherichia coli [10], 4 mg/L (≈ 10.9 µM). The minimum inhibitory concentration (MIC) is 4 mg/L (≈ 10.9 µM) with Salmonella [11]; 0.43 µM (≈ 0.157 µg/mL) in assay [12]; 0.25 mg/L (≈ 0.683 µM) in assay [13]; 0.5 mg/L (≈ 1.37 µM) in assay [14]; 0.25 mg/L (≈ 0.683 µM) in assay [15]. Also, the zone of inhibition at 2 µg/mL in the assay with Staphylococcus aureus [2] stood at 21 mm; with Escherichia coli [4], 43 mm; in the assay with Salmonella [6], 28 mm; in the assay with Pseudomonas aeruginosa [9] it was 32 mm; in the assay with Escherichia coli [16], 25 mm.

Regarding `CCn1cc(C(=O)O)c(=O)c2cc(F)c(N3CCNCC3)cc21` [NORFLOXACIN], the MIC in [1] was 8 mg/L (≈ 25.1 µM); in [3], 4 mg/L (≈ 12.5 µM); with Staphylococcus aureus [5], 16 mg/L (≈ 50.1 µM); with Pseudomonas aeruginosa [7] it was 2 mg/L (≈ 6.26 µM); in the assay with Escherichia coli [8], 2 mg/L (≈ 6.26 µM); in the assay on Escherichia coli [10], 4 mg/L (≈ 12.5 µM). Also, the MIC in the assay with Salmonella [11] was 16 mg/L (≈ 50.1 µM); in assay [12], 6.26 µM (≈ 2 µg/mL); in assay [13], 4 mg/L (≈ 12.5 µM); in [14], 4 mg/L (≈ 12.5 µM); in [15], 4 mg/L (≈ 12.5 µM). Besides, the zone of inhibition at 2 µg/mL in the assay with Staphylococcus aureus [2] was less than 5 mm; in the assay with Escherichia coli [4], 33 mm; in the assay on Salmonella [6] it was 17 mm; with Pseudomonas aeruginosa [9], 16 mm; with Escherichia coli [16], 18 mm.

As to `O=C(O)c1cn(-c2ccc(F)cc2)c2cc(N3CCNCC3)c(F)cc2c1=O` [SARAFLOXACIN], the minimal inhibitory concentration (MIC) turned out to be 16 mg/L (≈ 41.5 µM) in assay [1]; 8 mg/L (≈ 20.8 µM) in assay [3]; 16 mg/L (≈ 41.5 µM) in the assay on Staphylococcus aureus [5]; 2 mg/L (≈ 5.19 µM) in the assay on Pseudomonas aeruginosa [7]; 0.5 mg/L (≈ 1.3 µM) in the assay on Escherichia coli [8]; 4 mg/L (≈ 10.4 µM) with Escherichia coli [10]. Also, the minimum inhibitory concentration (MIC) in the assay on Salmonella [11] came out at 16 mg/L (≈ 41.5 µM); in assay [12], 5.19 µM (≈ 2 µg/mL); in [13] it was 8 mg/L (≈ 20.8 µM); in assay [14] it was 8 mg/L (≈ 20.8 µM); in assay [15], 8 mg/L (≈ 20.8 µM). In addition, the zone of inhibition at 2 µg/mL was less than 5 mm with Staphylococcus aureus [2]; 38 mm with Escherichia coli [4]; 25 mm with Salmonella [6]; 20 mm in the assay with Pseudomonas aeruginosa [9]; 24 mm with Escherichia coli [16].

The values above are taken from ChEMBL document CHEMBL3232938, “Design, synthesis, and biological evaluation of dihydroartemisinin-fluoroquinolone conjugates as a novel type of potential antitubercular agents” (2014).
